Test results: patent US20250154130A1, “NOVEL THR BETA ANALOGS AND USES THEREOF” (MADRIGAL PHARMACEUTICALS, INC., priority 2022, published 2025)

Columns and labels:
TR alpha LBD-GST = target: T1, TR alpha LBD-GST (Homo sapiens, UniProt P10827); test: Thyroid Receptor Alpha Coactivator - Agonist (LanthaScreen TR-FRET coactivator recruitment assay); type: biochemical; conditions: 1% DMSO, relative to T3 response
T1 construct: incubated with the TR alpha LBD-GST or TR beta LBD-GST; purchased ThermoFIsher
Method: Thyroid receptor beta and thyroid receptor alpha coactivator recruitment assays were performed using LanthaScreen™ TR-FRET TR alpha or beta Coactivator Assay Kits (ThermoFIsher). The control agonist 3,3′,5-Triiodo-L-thyronine sodium salt, T3 (SIGMA) was used to validate the assay. Test compound and/or vehicle was incubated with the TR alpha LBD-GST or TR beta LBD-GST and coactivator peptide (Fluorescein-SRC2-2 (LKEKHKILHRLLQDSSSPV) (SEQ ID NO: 1)) for 30 minutes at RT. Determination of the amount of complex formed was read spectrofluorimetrically (excitation: 337 nm, emission: 520/490 nm) on a PHERAstar FS instrument (BMG). […]

TR beta LBD-GST = target: T2, TR beta LBD-GST (Homo sapiens, UniProt P10828); test: Thyroid Receptor Beta Coactivator - Agonist (LanthaScreen TR-FRET coactivator recruitment assay); type: biochemical; conditions: 1% DMSO, relative to T3 response
T2 construct: incubated with the TR alpha LBD-GST or TR beta LBD-GST; purchased ThermoFIsher
T2 sequence (P10828 217-461 limits assumed): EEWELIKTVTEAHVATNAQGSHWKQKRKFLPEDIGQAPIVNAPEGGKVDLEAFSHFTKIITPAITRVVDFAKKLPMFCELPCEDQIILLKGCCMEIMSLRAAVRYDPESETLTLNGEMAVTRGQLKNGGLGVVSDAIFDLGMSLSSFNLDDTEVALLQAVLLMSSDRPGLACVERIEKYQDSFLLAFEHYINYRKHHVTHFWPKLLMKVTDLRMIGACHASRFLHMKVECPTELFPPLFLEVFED
Method: Thyroid receptor beta and thyroid receptor alpha coactivator recruitment assays were performed using LanthaScreen™ TR-FRET TR alpha or beta Coactivator Assay Kits (ThermoFIsher). The control agonist 3,3′,5-Triiodo-L-thyronine sodium salt, T3 (SIGMA) was used to validate the assay. Test compound and/or vehicle was incubated with the TR alpha LBD-GST or TR beta LBD-GST and coactivator peptide (Fluorescein-SRC2-2 (LKEKHKILHRLLQDSSSPV) (SEQ ID NO: 1)) for 30 minutes at RT. Determination of the amount of complex formed was read spectrofluorimetrically (excitation: 337 nm, emission: 520/490 nm) on a PHERAstar FS instrument (BMG). […] Compounds were screened at 30, 10, 3, 1, 0.3, 0.1, and 0.03 μM.

T1 sequence (P10827 163-410 isoform P10827-2 limits assumed, other chains not shown): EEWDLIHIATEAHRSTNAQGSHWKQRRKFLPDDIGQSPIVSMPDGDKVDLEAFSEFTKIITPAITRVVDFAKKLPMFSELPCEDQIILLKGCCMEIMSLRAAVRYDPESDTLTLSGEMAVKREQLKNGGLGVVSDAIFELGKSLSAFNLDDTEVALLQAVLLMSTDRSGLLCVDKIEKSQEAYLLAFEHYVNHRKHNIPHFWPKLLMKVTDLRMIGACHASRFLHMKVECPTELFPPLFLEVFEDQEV

Question: Which results are given for `N#Cc1cn(-c2cc(Cl)c(Oc3n[nH]c(=O)c4ccccc34)c(Cl)c2)c(=O)[nH]c1=O` [Compound g, 1-(3,5-dichloro-4-((4-oxo-3,4-dihydrophthalazin-1-yl)oxy)phenyl)-2,4-dioxo-1,2,3,4-tetrahydropyrimidine-5-carbonitrile]?
Answer: Agonist Response (TR alpha LBD-GST; test compound 10 nM): 1.1; Agonist Response (TR alpha LBD-GST; test compound 0.03 mcM): 1.4; Agonist Response (TR alpha LBD-GST; test compound 0.1 mcM): 2.2; Agonist Response (TR alpha LBD-GST; test compound 0.3 mcM): 3.9; Agonist Response (TR alpha LBD-GST; test compound 1 mcM): 12.7; Agonist Response (TR alpha LBD-GST; test compound 3 mcM): 19.2; Agonist Response (TR alpha LBD-GST; test compound 10 mcM): 19.5; Agonist Response (TR alpha LBD-GST; test compound 30 mcM): 18.6; Agonist Response (TR beta LBD-GST; test compound 10 nM): −4.5; Agonist Response (TR beta LBD-GST; test compound 0.03 mcM): −1.2; Agonist Response (TR beta LBD-GST; test compound 0.1 mcM): 0.7; Agonist Response (TR beta LBD-GST; test compound 0.3 mcM): 10.5; Agonist Response (TR beta LBD-GST; test compound 1 mcM): 28.7; Agonist Response (TR beta LBD-GST; test compound 3 mcM): 31.1; Agonist Response (TR beta LBD-GST; test compound 10 mcM): 32.6; Agonist Response (TR beta LBD-GST; test compound 30 mcM): 31.8
